Values quoted from earlier work in patent publication US20120015026A1, “PHARMACEUTICAL COMPOSITION CONTAINING A DRUG AND SIRNA” (priority 2009, published 2012).

Experiments:
[1] = organic solvents such as ethanol, ethylacetate, dichloromethane

C/C(=C\c1csc(C)n1)[C@@H]1C[C@@H]2O[C@]2(C)CCC[C@H](C)[C@H](O)[C@@H](C)C(=O)C(C)(C)[C@@H](O)CC(=O)O1 [EPO906, epothilone B]
solubility in organic solvents [1]: highly soluble
solubility in water: < 0.1 µg/mL
